Experimental data: patent US9388163B2, “Multifunctional radical quenchers for the treatment of mitochondrial dysfunction” (Arizona Board of Regents, a Body Corporate of the State of …, priority 2011, dated 2016)

Assays:
leukemia CEM lymphocytes = assay: Suppression of lipid peroxidation (C11-BODIPY 581/591, FACS) in DEM-treated cells; format: cell-based; conditions: CEM cells treated with DEM, untreated control 100, treated control 0
Procedure: (§1) Leukemic CEM cells (ATCC®, catalogue number CRL-2264) were cultured in RPMI (GIBCO, Grand island, NY, USA) with 10% FBS (Fisher Scientific, TX, USA), 2 mM glutamine (HyClone, South Logan, Utah, USA) and 1% penicillin-streptomycin mix antibiotics (Cellgro, Manassas, Va., USA) supplements. Cells were maintained in the log phase at a concentration of between 1×10^5 and 1×10^6 cells/mL.
Measurement of C11-BODIPY^581/591 Oxidation in Cell Culture
Lipid peroxidation in cells was detected by utilizing the oxidant-sensitive lipophilic probe C11 BODIPY^581/591. […] Cells were treated with 500 nM C11 BODIPY^581/591 in phenol red-free RPMI-1640 media and incubated at 37° C. in the dark for 30 minutes. The cells were washed twice with phosphate buffered saline and oxidative stress was induced with 5 mM DEM in phenol red-free RPMI-1640 media for 90 minutes. Treated cells were collected by centrifugation at 300×g for 3 minutes and then washed twice with phosphate buffered saline. Cells were re-suspended in 250 μL of phosphate buffered saline and were analyzed by FACS (FACS Calibur flow cytometer, Becton Dickinson) to monitor the change in intensity of the C11 BODIPY^581/591 green (oxidized) fluorescence signal.

FRDA cell line = assay: Trypan blue exclusion cell viability assay, DEM-stressed cells; format: cell-based; conditions: FRDA cells stressed with DEM
Procedure: as §1, with “Friedreich's Ataxia lymphocytes and control” for “Leukemic CEM”, “(Coriell,” for “(ATCC®,”, “[…], respectively)” for “CRL-2264)”, “15%” for “10%”
V. Trypan Blue Cell Viability Assay
Cell viability determined by trypan blue exclusion assay: This technique was used to assess the cytoprotective effects of the invention compounds in cultured cells pharmacologically treated to induce cell death by GSH depletion. DEM was used to deplete cellular GSH and induce oxidative stress. The viability of DEM-treated cells was determined by their ability to exclude the dye trypan blue. Viable cells exclude trypan blue; whereas, non-viable cells take up the dye and stain blue. Briefly, cells were seeded at a density of 1×10^6 cells/mL and treated with different concentrations of the invention compounds. Cells were incubated at 37° C. in a humidified atmosphere of 5% CO2 in air for three hours with 5 mM DEM. Cell viability was determined by staining cells with 0.4% trypan blue using a hemocytometer. At least 500 cells were counted for each experimental group. At the time of assay, >95% of DEM-treated cells were trypan blue positive; whereas, in non-DEM treated control cell cultures >95% cells were viable. Cell viability was expressed as the percentage of control. Data are expressed as means±S.E.M (n=3).

CEM leukemia cells = assay: Suppression of ROS production (DCFH-DA, flow cytometry) in DEM-treated cells; format: cell-based; conditions: CEM cells treated with DEM, untreated control 100, treated control 0
Procedure: as §1
Cellular ROS production can be monitored using 2′,7′-dichlorodihydrofluorescein diacetate (DCFH-DA) (LeBel et al. (1992) Chem. Res. Toxicol. 5, 227-231) (Molecular Probes, Eugene, Oreg., USA), a membrane permeable and oxidant-sensitive fluorescent dye. DCFH-DA is a non-fluorescent derivative of fluorescein that emits fluorescence after being oxidized by hydrogen peroxide and other ROS. The emitted fluorescence is directly proportional to the concentration of hydrogen peroxide. DCFH-DA is nonionic and nonpolar and is easily taken up by cells. Once inside the cell, DCFH-DA is hydrolyzed by cellular esterases to non-fluorescent DCFH which traps the dye in the cell. In the presence of ROS including hydrogen peroxide, DCFH is oxidized to the highly fluorescent compound dichlorofluorescein (DCF). The intracellular DCF fluorescence is used as an index of cellular ROS production.
Cellular oxidative stress was induced by pharmacological depletion of glutathione (GSH) using the chemical diethylmaleate (DEM). […] The compounds tested were prepared by first making stock solutions (1 mM) in dimethylsulfoxide (DMSO). Cells were treated with 5 mM DEM for 30 minutes and collected by centrifugation at 300×g for 3 min and then washed twice with Phosphate Buffer Saline (PBS) (Invitrogen, N.Y., USA). Cells were re-suspended in PBS buffer+10 mM glucose and incubated at 37° C. in the dark for 20 min with 10 μM DCFH-DA. Cells were collected by centrifugation at 300×g for 3 min and then washed twice with PBS buffer. The samples were analyzed immediately by flow cytometry (Becton-Dickinson FACS Caliber), (Cell Quest software, BD Biosciences) using 488 nm excitation laser and FL1-H channel 538 nm emission filter. In each analysis, 10,000 events were recorded after cell debris were electronically gated out. Results obtained were verified by running duplicates and repeating experiments N=3 independent experiments. Authentic hydrogen peroxide was used as a positive control.

[1] = system: bovine heart mitochondrial complex (I, III, IV); assay: NADH oxidase inhibition assay (beef heart submitochondrial particles); format: biochemical
Procedure: X. NADH Oxidase Inhibition Assay
Beef heart mitochondria were obtained by a large-scale procedure. Inverted submitochondrial particles (SMP) were prepared by the method of Matsuno-Yagi and Hatefi (J. Biol. Chem. 260 (1985), p. 14424), and stored in a buffer containing 0.25 M sucrose and 10 mM Tris-HCl (pH 7.4) at −80° C. Inhibitory effects of compounds on bovine heart mitochondrial complex (I, III, IV) were evaluated. Maximal dimethyl sulfoxide concentration never exceeded 2% and had no influence on the control enzymatic activity. Beef heart SMP were diluted to 0.5 mg/mL. The enzymatic activities were assayed at 30° C. and monitored spectrophotometrically with a Beckman Coulter DU-530 (340 nm, ε=6.22 mM^−1 cm^−1). NADH oxidase activity was determined in a reaction medium (2.5 mL) containing 50 mM Hepes, pH 7.5, containing 5 mM MgCl2. The final mitochondrial protein concentration was 30 μg/mL. After the pre-equilibration of SMP with inhibitor for 5 min, the initial rates were calculated from the linear portion of the traces.

FRDA lymphocyte = assay: Mitochondrial bioenergetics assessment: total cellular ATP content; format: cell-based; conditions: for cellular ATP levels: after forty hours, at lower concentration (FIG. 3)
Procedure: XI. Mitochondrial Bioenergetics Assessment
The use of CoQ10 analogues and methylene blue analogues to normalize and restore the respiratory chain activities provides valuable therapeutic approach for mitochondrial diseases. The reductions of mitochondrial respiratory chain activity in Friedreich ataxia (FRDA) patients have been reported. The efficiency of oxidative phosphorylation was evaluated in FRDA lymphocyte (GM15850) in presence of tested CoQ10 analogues and methylene blue analogues by measuring total cellular ATP content using (ViaLight®-Plus ATP monitoring reagent kit, Lonza).
FRDA lymphocyte cell lines were obtained from Coriell Cell Repositories. FRDA lymphocytes were cultured under glucose-free media supplemented with galactose for two weeks to force energy production predominantly through oxidative phosphorylation rather than glycolysis. Lymphocytes were cultured in RPMI 1640 medium glucose-free supplemented with 25 mM galactose, 2 mM glutamine and 1% penicillin-streptomycin, and 10%, dialyzed fetal bovine serum FBS (<0.5 μg/mL). Briefly, lymphocytes (2×10^5 cell/mL), were plated (1 mL in 12-well plates) and treated with the test compounds at final concentrations of 50, 125. […] Cells were transferred (100 μL) to 96-well microtiter black-walled cell culture plates. The total intracellular ATP level was measured in a luminator (Clarity™ luminescence microplate reader) with the ATP Bioluminescence Assay Kit (ViaLight®-Plus ATP monitoring reagent kit, Lonza) following the manufacturer's instructions. Carbonyl cyanide-p-trifluormethoxy-phenylhydrazone (FCCP) and oligomycin were used as control for inhibition of ATP synthesis.

[2] = James et al. (2005); cited from earlier work

Row | SMILES | Scavenging activity (%) (lipid peroxidation) (leukemia CEM lymphocytes; 1 μM) | Scavenging activity (%) (lipid peroxidation) (leukemia CEM lymphocytes; 2.5 μM) | Scavenging activity (%) (lipid peroxidation) (leukemia CEM lymphocytes; 5 μM) | viability at 0.1 µM (FRDA cell line) [%] | viability at 0.5 µM (FRDA cell line) [%] | viability at 2.5 µM (FRDA cell line) [%] | % of scavenging activity (ROS) (CEM leukemia cells; 0.25 μM) [%] | % of scavenging activity (ROS) (CEM leukemia cells; 2.5 μM) [%] | % of scavenging activity (ROS) (CEM leukemia cells; 10 μM) [%] | NADH oxidase (complex I, III, IV) activity (%) ([1]; 5 μM compound) | NADH oxidase (complex I, III, IV) activity (%) ([1]; 10 μM compound) | NADH oxidase (complex I, III, IV) activity (%) ([1]; l μM compound) | cellular ATP levels (FRDA lymphocyte) | maintaining ATP levels, compared with methylene blue (FRDA lymphocyte; at higher concentrations) | calculated octanol-water partition coefficient [2]
1 | CCCCCCCCCCCCCCCCc1c(C)n(O)c(C)c(N)c1=O [CPD-4, 3-amino-5-hexadecyl-1-hydroxy-2,6-dimethylpyridin-4(1H)-one] | 18 ± 2.2 | 52 ± 1.5 | 94 ± 0.2 | 17 ± 5 | 21 ± 9 | 35 ± 9 | 41.4 ± 14.9 | 81.8 ± 3.7 | 91.0 ± 1.5 | 12.7 ± 1.7 | 10.7 ± 1.3% | 17.1 ± 1^ % | – | – | –
2 | CCCCCCCc1c(C)n(O)c(C)c(OC)c1=O [CPD-5, 3-heptyl-1-hydroxy-5-methoxy-2,6-dimethylpyridin-4(1H)-one] | 11 ± 1.8 | 16 ± 1.8 | 2.2 ± 2.3 | 12 ± 6 | 17 ± 7 | 14 ± 3 | 21.0 ± 5.5 | 26.4 ± 4.4 | 0 ± 10 | 44.5 ± 3.6 | 33.5 ± 2.2% | 74.5 ± 6.9% | – | – | –
3 | CN(C)c1ccc2nc3ccc(=O)cc-3sc2c1 [CPD-18, 7-(dimethylamino)-3H-phenothiazin-3-one] | – | – | – | – | – | – | – | – | – | – | – | – | significantly increased cellular ATP levels | superior to methylene blue | –
4 | C=Cc1c(C)n(O)c(C)c(CCCCCCC)c1=O [CPD-1, 3-heptyl-1-hydroxy-2,6-dimethyl-5-vinylpyridin-4(1H)-one] | 0 | 0 | 0 | 25 ± 6 | 42 ± 3 | 30 ± 6 | 23.4 ± 1.6 | 22.2 ± 3.5 | 20.0 ± 4.4 | 20.7 ± 2.2 | 13.2 ± 1^ % | 29.7 ± 3.8% | – | – | –
5 | COC1=C(OC)C(=O)C(C/C=C(\C)CC/C=C(\C)CC/C=C(\C)CC/C=C(\C)CC/C=C(\C)CC/C=C(\C)CC/C=C(\C)CC/C=C(\C)CC/C=C(\C)CCC=C(C)C)=C(C)C1=O [coenzyme Q10] | – | – | – | – | – | – | – | – | – | – | – | – | – | – | > 10^20
6 | C=Cc1c(C)n(O)c(C)c(CCCCCCCCCCCCCCCC)c1=O [CPD-2, 3-hexadecyl-1-hydroxy-2,6-dimethyl-5-vinylpyridin-4(1H)-one] | 7 ± 2.8 | 13 ± 4.2 | 0 | 10 ± 3 | 14 ± 5 | 15 ± 4 | 31.1 ± 1.3 | 25.3 ± 5.2 | 35.2 ± 3.9 | 12 ± 0.8 | 11.9 ± 1.6% | 20.1 ± 1.4% | – | – | –
7 | CCCCCCCc1c(C)n(O)c(C)c(N)c1=O [CPD-3, 3-amino-5-heptyl-1-hydroxy-2,6-dimethylpyridin-4(1H)-one] | 14 ± 4.1 | 20 ± 5.4 | 9.6 ± 2.8 | 19 ± 6 | 19 ± 3 | 25 ± 5 | 4.6 ± 5.4 | 42.2 ± 2.9 | 67.0 ± 5.9 | 76.7 ± 6.9 | 70.4 ± 5.5% | 92.9 ± 10.9% | – | – | –
8 | CN(C)c1ccc2nc3ccc(=[N+](C)C)cc-3sc2c1 [methylene blue, reference compound] | – | – | – | – | – | – | – | – | – | – | – | – | significantly increased cellular ATP levels | – | –
